# According to patent US11939314B2, “Quinolin-2-one derivatives” (MERCK PATENT GMBH, priority 2016, dated 2024):
# Assays:
# [1] = biological target: T1, c-Kit(V654A) (Homo sapiens, UniProt P10721, V654A); assay: c-Kit(V654A) assay; type: biochemical; conditions: recombinant human c-Kit aa 544-end, 200 μM ATP, 1.4E-06 means 1.4×10^−6, read-out: Inhibition (IC50) of c-KIT (V654A)
# T1 construct: amino acids 544-end containing the V654A mutation; GST (N)
# In short: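 Radiometric filter-binding read-out: substrate 33P incorporation counted by scintillation after P30 filtermat washes in 75 mM phosphoric acid and methanol. Enzyme: N-GST recombinant human c-Kit aa 544-end carrying V654A.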
# [2] = biological target: T2, PDGFRalpha(V561D) (Homo sapiens, UniProt P16234, V561D); assay: PDGFRalpha(V561D) assay; type: biochemical; conditions: recombinant human PDGFRalpha aa 550-end, 200 μM ATP, 1.4E-06 means 1.4×10^−6, read-out: Inhibition (IC50) of PDGFRα (V561D)
# T2 construct: recombinant human PDGFRalpha, amino acids 550end containing the V561 D mutation; 6His (N)
# T2 sequence (P16234 550-1089 V561D): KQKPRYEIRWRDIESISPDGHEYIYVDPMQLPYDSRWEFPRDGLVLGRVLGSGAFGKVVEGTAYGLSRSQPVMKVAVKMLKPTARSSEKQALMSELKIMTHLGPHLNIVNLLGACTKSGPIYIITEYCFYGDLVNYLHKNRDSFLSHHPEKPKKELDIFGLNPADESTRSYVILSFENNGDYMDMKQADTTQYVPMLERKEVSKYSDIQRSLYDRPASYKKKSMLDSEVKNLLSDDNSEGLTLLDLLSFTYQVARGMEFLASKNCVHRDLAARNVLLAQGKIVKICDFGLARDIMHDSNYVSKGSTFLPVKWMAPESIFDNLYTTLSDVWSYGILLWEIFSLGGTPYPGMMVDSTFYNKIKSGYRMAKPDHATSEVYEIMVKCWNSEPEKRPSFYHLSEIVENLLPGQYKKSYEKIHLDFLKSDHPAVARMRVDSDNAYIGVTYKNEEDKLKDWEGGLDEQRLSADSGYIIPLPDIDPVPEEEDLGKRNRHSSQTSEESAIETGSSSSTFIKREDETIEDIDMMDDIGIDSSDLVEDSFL
# In short: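 Radiometric filter-binding assay: substrate phosphorylation by recombinant N-His-tagged human PDGFRα 550-end V561D was quenched with 3% phosphoric acid after 40 min at room temperature, then counted.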
# T1 sequence (P10721 544-976 V654A): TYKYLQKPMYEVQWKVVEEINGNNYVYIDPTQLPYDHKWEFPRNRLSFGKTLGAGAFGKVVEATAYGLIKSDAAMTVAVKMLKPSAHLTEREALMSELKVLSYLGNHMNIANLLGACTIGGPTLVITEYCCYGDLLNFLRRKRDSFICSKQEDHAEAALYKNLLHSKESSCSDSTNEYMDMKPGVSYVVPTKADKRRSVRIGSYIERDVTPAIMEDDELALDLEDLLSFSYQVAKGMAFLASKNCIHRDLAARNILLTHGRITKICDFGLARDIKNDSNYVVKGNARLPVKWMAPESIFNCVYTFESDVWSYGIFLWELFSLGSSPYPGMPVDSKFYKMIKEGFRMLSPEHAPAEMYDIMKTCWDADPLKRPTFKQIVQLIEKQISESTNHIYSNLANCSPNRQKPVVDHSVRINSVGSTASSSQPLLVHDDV
IC50 [1],IC50 [2],Compound
150 nM,42 nM,"O=C1COCCN1c1ccc(-n2cc(-c3cc4ccncc4[nH]c3=O)nn2)cc1 [A49, 3-{1-[4-(3-oxo-morpholin-4-yl)-phenyl]-1H-[1,2,3]triazol-4-yl}-1H-[1,7]naphthyridin-2-one]"
25 nM,65 nM,"CN(C)C[C@H]1CCCN1C(=O)c1ccc(-n2cc(-c3cc4cc(Cl)ccc4[nH]c3=O)nn2)cc1 [A322, 6-chloro-3-{1-[4-((R)-2-dimethylaminomethyl-pyrrolidine-1-carbonyl)-phenyl]-1H-[1,2,3]triazol-4-yl}-1H-quinolin-2-one]"
35 nM,45 nM,"CO[C@@H]1C[C@@H](CO)N(C(=O)c2ccc(-n3cc(-c4cc5cc(Cl)ccc5[nH]c4=O)nn3)cc2)C1 [A248, 6-chloro-3-{1-[4-((2S,4R)-2-hydroxymethyl-4-methoxy-pyrrolidine-1-carbonyl)-phenyl]-1H-[1,2,3]triazol-4-yl}-1H-quinolin-2-one]"
13 nM,1.2 nM,"O=C(c1ccc(-n2cc(-c3cc4cc(F)ccc4[nH]c3=O)nn2)cc1)N1CC[C@H](O)C1 [A182, 6-fluoro-3-{1-[4-((S)-3-hydroxy-pyrrolidine-1-carbonyl)-phenyl]-1H-[1,2,3]triazol-4-yl}-1H-quinolin-2-one]"
84 nM,38 nM,"CN(C)C(=O)c1ccc(-n2cc(-c3cc4ccncc4[nH]c3=O)nn2)cc1 [A42, N,N-dimethyl-4-[4-(2-oxo-1,2-dihydro-[1,7]naphthyridin-3-yl)-[1,2,3]triazol-1-yl]-benzamide]"
17 nM,31 nM,"O=C(c1cccc(-n2cc(-c3cc4ccccc4[nH]c3=O)nn2)c1)N1CCNCC1 [A78, 3-{1-[3-(piperazine-1-carbonyl)-phenyl]-1H-[1,2,3]triazol-4-yl}-1H-quinolin-2-one]"
69 nM,63 nM,"O=c1[nH]c2ccccc2cc1-c1cn(-c2ccc(F)cc2)nn1 [A12, 3-[1-(4-fluoro-phenyl)-1H-[1,2,3]triazol-4-yl]-1H-quinolin-2-one]"
490 nM,160 nM,"O=c1[nH]c2ccccc2cc1-c1cn(-c2cnc(N3CCNCC3)nc2)nn1 [A54, 3-[1-(2-piperazin-1-yl-pyrimidin-5-yl)-1H-[1,2,3]triazol-4-yl]-1H-quinolin-2-one]"
7.5 nM,0.8 nM,"O=C(c1ccc(-n2cc(-c3cc4cc(F)ccc4[nH]c3=O)nn2)cc1)C1CCNCC1 [A132, 6-fluoro-3-{1-[4-(piperidine-4-carbonyl)-phenyl]-1H-[1,2,3]triazol-4-yl}-1H-quinolin-2-one]"
51 nM,100 nM,"COCCO[C@@H]1CCN(C(=O)c2ccc(-n3cc(-c4cc5cc(Cl)ccc5[nH]c4=O)nn3)cc2)C1 [A260, 6-chloro-3-(1-{4-[(R)-3-(2-methoxy-ethoxy)-pyrrolidine-1-carbonyl]-phenyl}-1H-[1,2,3]triazol-4-yl)-1H-quinolin-2-one]"
19 nM,310 nM,"NC1CCN(C(=O)c2ccc(-n3cc(-c4cc5cc(F)c(F)cc5[nH]c4=O)nn3)cc2)CC1 [A143, 3-{1-[4-(4-amino-piperidine-1-carbonyl)-phenyl]-1H-[1,2,3]triazol-4-yl}-6,7-difluoro-1H-quinolin-2-one]"
9 nM,370 nM,"CN1CCN(C(=O)c2ccc(-n3cc(-c4cc5c(F)cc(F)cc5[nH]c4=O)nn3)cc2)CC1=O [A95, 5,7-difluoro-3-{1-[4-(4-methyl-3-oxo-piperazine-1-carbonyl)-phenyl]-1H-[1,2,3]triazol-4-yl}-1H-quinolin-2-one]"
48 nM,21 nM,"CN(C)[C@H]1[C@@H]2CN(C(=O)c3ccc(-n4cc(-c5cc6cc(F)ccc6[nH]c5=O)nn4)cc3)C[C@@H]21 [A330, 3-{1-[4-(6-dimethylamino-3-aza-bicyclo[3.1.0]hexane-3-carbonyl)-phenyl]-1H-[1,2,3]triazol-4-yl}-6-fluoro-1H-quinolin-2-one]"
17 nM,1.5 nM,"O=C(c1ccc(-n2cc(-c3cc4cc(F)ccc4[nH]c3=O)nn2)cc1)N1CCC[C@@H]1CN1CCCC1 [A278, 6-fluoro-3-{1-[4-((R)-2-pyrrolidin-1-ylmethyl-pyrrolidine-1-carbonyl)-phenyl]-1H-[1,2,3]triazol-4-yl}-1H-quinolin-2-one]"
25 nM,36 nM,"CNc1ccc(-n2cc(-c3cc4cc(F)ccc4[nH]c3=O)nn2)cc1 [A342, 6-fluoro-3-[1-(4-methylamino-phenyl)-1H-[1,2,3]triazol-4-yl]-1H-quinolin-2-one]"
53 nM,560 nM,"COCCOC[C@H]1CCN(C(=O)c2ccc(-n3cc(-c4cc5cc(F)ccc5[nH]c4=O)nn3)cc2)C1 [A236, 6-fluoro-3-(1-{4-[(S)-3-(2-methoxy-ethoxymethyl)-pyrrolidine-1-carbonyl]-phenyl}-1H-[1,2,3]triazol-4-yl)-1H-quinolin-2-one]"

IC50 [1],IC50 [2],Compound
9.7 nM,64 nM,"COC1CCN(C(=O)c2ccc(-n3cc(-c4cc5cc(F)ccc5[nH]c4=O)nn3)cc2)CC1 [A190, 6-fluoro-3-{1-[4-(4-methoxy-piperidine-1-carbonyl)-phenyl]-1H-[1,2,3]triazol-4-yl}-1H-quinolin-2-one]"
60 nM,54 nM,"O=c1[nH]c2ccc(F)cc2cc1-c1cn(-c2cccc(OCCN3CCOCC3)c2)nn1 [A94a, 6-fluoro-3-{1-[3-(2-morpholin-4-yl-ethoxy)-phenyl]-1H-[1,2,3]triazol-4-yl}-1H-quinolin-2-one]"
26 nM,1600 nM,"CCN(CC)CCNC(=O)c1ccc(-n2cc(-c3cc4cc(F)c(Cl)cc4[nH]c3=O)nn2)cc1 [A188, 4-[4-(7-chloro-6-fluoro-2-oxo-1,2-dihydro-quinolin-3-yl)-[1,2,3]triazol-1-yl]-N-(2-diethylamino-ethyl)-benzamide]"
110 nM,26 nM,"COc1cccc(-n2cc(-c3cc4ccccc4[nH]c3=O)nn2)c1 [A24, 3-[1-(3-methoxy-phenyl)-1H-[1,2,3]triazol-4-yl]-1H-quinolin-2-one]"
20 nM,3 nM,"O=C1COCCN1c1ccc(-n2cc(-c3cc4cc(F)ccc4[nH]c3=O)nn2)cc1F [A33, 6-fluoro-3-{1-[3-fluoro-4-(3-oxo-morpholin-4-yl)-phenyl]-1H-[1,2,3]triazol-4-yl}-1H-quinolin-2-one]"
18 nM,21 nM,"CN1CCN(C(=O)COc2ccc(-n3cc(-c4cc5cc(F)c(F)cc5[nH]c4=O)nn3)cc2)CC1 [A167, 6,7-difluoro-3-(1-{4-[2-(4-methyl-piperazin-1-yl)-2-oxo-ethoxy]-phenyl}-1H-[1,2,3]triazol-4-yl)-1H-quinolin-2-one]"
57 nM,16 nM,"COC[C@H]1CCN(C(=O)c2ccc(-n3cc(-c4cc5cc(F)ccc5[nH]c4=O)nn3)cc2)C1 [A202, 6-fluoro-3-{1-[4-((S)-3-methoxymethyl-pyrrolidine-1-carbonyl)-phenyl]-1H-[1,2,3]triazol-4-yl}-1H-quinolin-2-one]"
44 nM,23 nM,"O=C(c1cccc(-n2cc(-c3cc4cc(F)ccc4[nH]c3=O)nn2)c1)N1CCC(N2CCCC2)C1 (centres unmarked) [A107, 3-{1-[3-([1,3′]bipyrrolidinyl-1′-carbonyl)-phenyl]-1H-[1,2,3]triazol-4-yl}-6-fluoro-1H-quinolin-2-one]"
8.5 nM,0.71 nM,"O=C(c1ccc(-n2cc(-c3cc4cc(F)ccc4[nH]c3=O)nn2)cc1)N1CC[C@@H](O)C1 [A181, 6-fluoro-3-{1-[4-((R)-3-hydroxy-pyrrolidine-1-carbonyl)-phenyl]-1H-[1,2,3]triazol-4-yl}-1H-quinolin-2-one]"
6 nM,2 nM,"O=C(c1ccc(-n2cc(-c3cc4cc(F)ccc4[nH]c3=O)nn2)cc1)N1CCOCC1 [A1, 6-fluoro-3-{1-[4-(morpholine-4-carbonyl)-phenyl]-1H-[1,2,3]triazol-4-yl}-1H-quinolin-2-one]"
43 nM,1 nM,"CO[C@@H]1C[C@@H](CO)N(C(=O)c2ccc(-n3cc(-c4cc5cc(F)ccc5[nH]c4=O)cn3)cc2)C1 [A301, 6-fluoro-3-{1-[4-((2S,4R)-2-hydroxymethyl-4-methoxy-pyrrolidine-1-carbonyl)-phenyl]-1H-pyrazol-4-yl}-1H-quinolin-2-one]"
58 nM,23 nM,"COCCO[C@H]1CCN(C(=O)c2ccc(-n3cc(-c4cc5cc(F)ccc5[nH]c4=O)cn3)cc2)C1 [A299, 6-fluoro-3-(1-{4-[(S)-3-(2-methoxy-ethoxy)-pyrrolidine-1-carbonyl]-phenyl}-1H-pyrazol-4-yl)-1H-quinolin-2-one]"
180 nM,240 nM,"CN(C)[C@H]1CCCN(C(=O)c2ccc(-n3cc(-c4cc5ccc(F)cc5[nH]c4=O)nn3)cc2)C1 [A336, 3-{1-[4-((S)-3-dimethylamino-piperidine-1-carbonyl)-phenyl]-1H-[1,2,3]triazol-4-yl}-7-fluoro-1H-quinolin-2-one]"
30 nM,33 nM,"CN1CCN(C(=O)COc2ccc(-n3cc(-c4cc5cc(F)ccc5[nH]c4=O)nn3)cc2)CC1 [A165, 6-fluoro-3-(1-{4-[2-(4-methyl-piperazin-1-yl)-2-oxo-ethoxy]-phenyl}-1H-[1,2,3]triazol-4-yl)-1H-quinolin-2-one]"
3600 nM,2300 nM,"O=C(c1ccc(-n2cc(-c3cc4cncnc4[nH]c3=O)nn2)cc1)N1CCOCC1 [A94, 6-{1-[4-(Morpholine-4-carbonyl)-phenyl]-1H-[1,2,3]triazol-4-yl}-8H-pyrido[2,3-d]pyrimidin-7-one]"
